Activity calls are given as the source filed them. The calls are words filed in the database; no cut-off is given here.
Assays:
A549 = assay: Cytotoxicity against Homo sapiens (human) A549 cells assessed as inhibition of cell viability by MTT assay; format: functional, cell-based
HeLa = assay: Cytotoxicity against Homo sapiens (human) HeLa cells assessed as inhibition of cell viability by MTT assay; format: functional, cell-based
MRC5 = assay: Cytotoxicity against Homo sapiens (human) MRC5 cells assessed as inhibition of cell viability by MTT assay; format: cell-based
[1] = Binding affinity to DNA assessed as peak current at 1 mM measured at potential of 0.45 V immediately after drug addition by cyclic voltammetry in presence of 1 mM cytosine
[2] = Binding affinity to DNA assessed as peak current at 1 mM measured at potential of 1.3 V at 3 hr after drug addition by cyclic voltammetry in presence of 3 mM cytosine
[3] = Binding affinity to DNA assessed as peak current at 1 mM measured at potential of 0.45 V at 3 hr after drug addition by cyclic voltammetry in presence of 3 mM cytosine
[4] = Binding affinity to DNA assessed as peak current at 1 mM measured at potential of 1.3 V at 30 min after drug addition by cyclic voltammetry in presence of 1 mM cytosine
[5] = Binding affinity to DNA assessed as peak current at 1 mM measured at potential of 1.3 V immediately after drug addition by cyclic voltammetry in presence of 1 mM cytosine
[6] = Binding affinity to DNA assessed as peak current at 1 mM at potential of 0.45 V by cyclic voltammetry
[7] = Binding affinity to DNA assessed as peak current at 1 mM at potential of 1.3 V by cyclic voltammetry

Structure (SMILES) | IC50 (A549) [µM] | IC50 (HeLa) [µM] | IC50 (MRC5) [µM] | Activity [1] | Activity [2] | Activity [3] | Activity [4] | Activity [5] | Activity [6] | Activity [7]
N#CC1=C(N)Oc2c(c(C(F)(F)F)nn2-c2cccc(Cl)c2)C1c1ccco1 (stereo not given) | > 100 | > 100 | > 100 | – | – | – | – | – | – | –
N#CC1=C(N)Oc2c(c(C(F)(F)F)nn2-c2ccccc2)C1c1ccc([N+](=O)[O-])cc1 (stereo not given) | > 100 | > 100 | > 100 | – | – | – | – | – | – | –
COc1cccc(C2C(C#N)=C(N)Oc3c2c(C(F)(F)F)nn3-c2ccccc2)c1 (stereo not given) | > 100 | > 100 | > 100 | – | – | – | – | – | – | –
N#CC1=C(N)Oc2c(c(C(F)(F)F)nn2-c2ccc(F)cc2)C1c1cccs1 (stereo not given) | > 100 | > 100 | > 100 | – | – | – | – | – | – | –
N#CC1=C(N)Oc2c(c(C(F)(F)F)nn2-c2ccccc2)C1c1cccs1 (stereo not given) | 75.5 | 74.1 | > 100 | – | – | – | – | – | – | –
COc1ccc(C2C(C#N)=C(N)Oc3c2c(C(F)(F)F)nn3-c2cccc(Cl)c2)cc1 (stereo not given) | 89.4 | > 100 | > 100 | – | – | – | – | – | – | –
COc1ccc(C2C(C#N)=C(N)Oc3c2c(C(F)(F)F)nn3-c2ccc(F)cc2)cc1 (stereo not given) | 10.3 | > 100 | > 100 | Active | inactive | Active | Active | inactive | Active | Active
N#CC1=C(N)Oc2c(c(C(F)(F)F)nn2-c2ccccc2)C1c1ccco1 (stereo not given) | > 100 | > 100 | > 100 | – | – | – | – | – | – | –
N#CC1=C(N)Oc2c(c(C(F)(F)F)nn2-c2ccc(F)cc2)C1c1ccc([N+](=O)[O-])cc1 (stereo not given) | > 100 | > 100 | > 100 | – | – | – | – | – | – | –
Cc1ccc(C2C(C#N)=C(N)Oc3c2c(C(F)(F)F)nn3-c2ccc(F)cc2)cc1 (stereo not given) | > 100 | > 100 | > 100 | – | – | – | – | – | – | –
N#CC1=C(N)Oc2c(c(C(F)(F)F)nn2-c2cccc(Cl)c2)C1c1ccc([N+](=O)[O-])cc1 (stereo not given) | > 100 | > 100 | > 100 | – | – | – | – | – | – | –

— ChEMBL document CHEMBL3046660, “Synthesis, cytotoxic, and DNA binding studies of novel fluorinated condensed pyrano pyrazoles” (Med Chem Res, 2013)
